Tested on: Bacillus amyloliquefaciens WF02
Assay: antagonistic assay (inhibition zone) on Bacillus amyloliquefaciens WF02 plate
Assay type: cell-based
Conditions: 100,000 ppm, 20 μL, 37° C., 48 hours, positive control, read-out: diameter of inhibition zone on WF02 plate
From the text: To be used as leveling agents for the biological preparation, in the embodiment of the present invention, it is necessary to confirm that the Bidens pilosa extract of the present invention without the effect of inhibiting the growth of the Bacillus amyloliquefaciens WF02 of the present invention, so antagonistic assay was used; wherein ampicillin is known with the effect on inhibiting the growth of the Bacillus amyloliquefaciens, therefore, it was used as a positive control group. First, the Bacillus amyloliquefacien WF02 of the present invention was cultured in the above method and 100 μL of a bacterial solution with an OD600 value of 0.3, which approximately contains 10^8 CFU/mL, was uniformly applied to two agarose plates (diameter 9 cm) and a plurality of circular sterile filter papers (diameter 8 mm) was placed thereon; wherein one plate was for testing the higher concentration (125,000-200,000 ppm) of the Bidens pilosa of the present invention, and the other was for the lower concentration (300-2,000 ppm). […]

CC1(C)S[C@@H]2[C@H](NC(=O)[C@H](N)c3ccccc3)C(=O)N2[C@H]1C(=O)O [ampicillin] gave a zone of inhibition at 100000 ppm of roughly 18.4 mm.
